From patent publication US5036157A, “Aryl derivatives” (Burroughs Wellcome Co., priority 1987, dated 1991)

Tests used:
5-lipoxygenase (LO) = biological target: T1, 5-lipoxygenase (LO) (Homo sapiens, UniProt P09917); experiment: In vitro inhibition of 5-lipoxygenase (LO); leukocyte homogenate with arachidonic acid, radioimmunoassay for leukotriene B4; format: biochemical; conditions: homogenised leukocytes from aspirin-free volunteers, 5 μM arachidonic acid, 37°, 5 minutes; leukotriene B4 (LO product)
T1 construct: The leukocytes were homogenised and 5 μM arachidonic acid added; endogenous in cells; host or cells: homogenate of leukocytes from blood of normal aspirin-free volunteers
T1 sequence (P09917 1-674): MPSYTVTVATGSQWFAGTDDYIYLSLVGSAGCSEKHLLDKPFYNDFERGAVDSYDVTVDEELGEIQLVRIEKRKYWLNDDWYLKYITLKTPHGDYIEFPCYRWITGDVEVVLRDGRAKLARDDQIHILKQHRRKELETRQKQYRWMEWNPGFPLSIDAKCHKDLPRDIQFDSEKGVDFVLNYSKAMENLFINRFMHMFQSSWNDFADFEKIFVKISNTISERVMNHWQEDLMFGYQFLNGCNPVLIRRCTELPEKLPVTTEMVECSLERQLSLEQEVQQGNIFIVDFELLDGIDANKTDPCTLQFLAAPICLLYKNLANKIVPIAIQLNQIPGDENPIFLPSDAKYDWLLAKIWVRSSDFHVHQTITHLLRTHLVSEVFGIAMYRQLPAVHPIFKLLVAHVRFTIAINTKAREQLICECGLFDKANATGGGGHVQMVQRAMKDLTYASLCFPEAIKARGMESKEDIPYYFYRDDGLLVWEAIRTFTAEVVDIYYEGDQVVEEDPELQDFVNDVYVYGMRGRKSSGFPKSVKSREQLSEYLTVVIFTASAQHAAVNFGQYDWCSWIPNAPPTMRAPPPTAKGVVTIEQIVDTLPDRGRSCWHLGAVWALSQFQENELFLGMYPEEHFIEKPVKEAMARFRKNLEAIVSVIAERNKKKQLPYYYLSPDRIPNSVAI
Method: (§1) In vitro inhibition of 5-lipoxygenase (LO) and Cyclooxygenase (CO)
(§2) Blood from normal aspirin-free volunteers was centrifuged to separate leukocytes from red cells and platelets. The leukocytes were homogenised and 5 μM arachidonic acid added, followed by incubation at 37° for 5 minutes. The reaction was stopped by boiling. Radioimmunassay was conducted for leukotriene B4 (an LO product) and thomboxane B4 (a CO product). Results were calculated as IC50 μM activity against each enzyme and as listed below.

Cyclooxygenase (CO) = biological target: T2, Cyclooxygenase (CO) (Homo sapiens, UniProt P23219); experiment: In vitro inhibition of Cyclooxygenase (CO); leukocyte homogenate with arachidonic acid, radioimmunoassay for thromboxane; format: biochemical; conditions: homogenised leukocytes from aspirin-free volunteers, 5 μM arachidonic acid, 37°, 5 minutes; thomboxane B4 (CO product)
T2 construct: The leukocytes were homogenised and 5 μM arachidonic acid added; endogenous in cells; host or cells: homogenate of leukocytes from blood of normal aspirin-free volunteers
Method: as §1, §2

T2 sequence (P23219 24-599): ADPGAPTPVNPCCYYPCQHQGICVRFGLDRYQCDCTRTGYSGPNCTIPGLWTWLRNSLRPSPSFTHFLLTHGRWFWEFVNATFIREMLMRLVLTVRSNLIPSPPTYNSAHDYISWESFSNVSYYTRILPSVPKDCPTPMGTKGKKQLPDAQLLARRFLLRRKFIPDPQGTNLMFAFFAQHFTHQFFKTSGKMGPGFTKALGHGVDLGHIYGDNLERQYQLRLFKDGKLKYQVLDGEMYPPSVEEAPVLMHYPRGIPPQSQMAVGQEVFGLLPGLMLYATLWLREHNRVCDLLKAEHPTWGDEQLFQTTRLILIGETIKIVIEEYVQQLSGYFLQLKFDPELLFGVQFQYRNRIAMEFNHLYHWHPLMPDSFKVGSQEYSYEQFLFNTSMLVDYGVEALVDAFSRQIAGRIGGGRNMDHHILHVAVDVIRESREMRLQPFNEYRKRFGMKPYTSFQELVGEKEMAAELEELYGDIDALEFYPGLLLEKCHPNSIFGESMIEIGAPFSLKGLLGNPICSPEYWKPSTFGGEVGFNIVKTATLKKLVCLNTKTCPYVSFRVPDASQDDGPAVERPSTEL

IC50 (5-lipoxygenase (LO)): < 0.1 µM
IC50 (Cyclooxygenase (CO)): 3 µM
Structure (SMILES): CN(O)C(=O)C=Cc1cccc(Oc2ccccc2)c1 [Example 1, 3-Phenoxy-N-methylcinnamohydroxamic Acid]
